Data reported in PubChem BioAssay AID651934 (Southern Research Specialized Biocontainment Screening …, 2012).
Activity calls are given as the source filed them. The rule behind the calls is not given here.

Experiments:
[1] = Chikungunya virus CPE inhibitors, dose response, cell-based, secondary assay, set 3 (AID 651934); settings: Chikungunya virus infected cells, CPE inhibition
[2] = system: Chikungunya virus infected cells, CPE inhibition; experiment: as above

SMILES: CCN1CCN(C)CC1=Nc1ccc([N+](=O)[O-])cc1C(=O)Nc1ccccc1
- inhibition ([1]; at 50 µM (top of the series)): 1.7% (inactive)

SMILES: CCN1CCN(CC2Nc3ccc([N+](=O)[O-])cc3C(=O)N2c2ccccc2F)CC1 (centres undefined)
- inhibition ([1]; at 25 µM (top of the series)): -0.9% (inactive)

SMILES: CN1CCN(C)C(=Nc2ccc(C#N)cc2C(=O)Nc2cccc(F)c2)C1
- inhibition ([1]; at 50 µM (top of the series)): 3.5% (inactive)

SMILES: COc1ccc(NC(=O)c2cc([N+](=O)[O-])ccc2N=C2CN(C)CCN2C)cc1
- inhibition ([1]; at 0.625 µM (top of the series)): 0.6% (inactive)

SMILES: CCN(CC)c1nc(=O)c2cccnc2s1
- inhibition ([1]; at 50 µM (top of the series)): -5.8% (inactive)

SMILES: CCN1CCN(Cc2nc3ccc([N+](=O)[O-])cc3c(=O)n2-c2ccccc2F)CC1
- inhibition ([1]; at 50 µM (top of the series)): -3.4% (inactive)

SMILES: CCN1CCN(Cc2nc3ccc(C#N)cc3c(=O)n2-c2ccccc2)CC1
- inhibition ([1]; at 25 µM (top of the series)): -0.5% (inactive)

SMILES: CN1CCN(C)C(=Nc2ccc([N+](=O)[O-])cc2C(=O)Nc2ccccc2)C1
- inhibition ([1]; at 25 µM (top of the series)): -1.6% (inactive)

SMILES: Cc1cccc(C)c1Nc1nc(=O)c2cccnc2s1
- inhibition ([1]; at 25 µM (top of the series)): -0.7% (inactive)

SMILES: O=C1CN(Cc2nc3ccc([N+](=O)[O-])cc3c(=O)n2-c2ccccc2F)CCN1
- inhibition ([1]; at 50 µM (top of the series)): 1.2% (inactive)

SMILES: CCN1CCN(Cc2nc3ccc(-c4nn[nH]n4)cc3c(=O)n2-c2ccccc2)CC1
- inhibition ([1]; at 50 µM (top of the series)): 0.6% (inactive)

SMILES: O=c1c2cc([N+](=O)[O-])ccc2nc(CN2CCCNCC2)n1-c1ccccc1
- inhibition ([1]; at 50 µM (top of the series)): 4.1% (inactive)

SMILES: CN1CCN(C)C(=Nc2ccc(F)cc2C(=O)Nc2ccccc2)C1
- inhibition ([1]; at 50 µM (top of the series)): 2.2% (inactive)

SMILES: O=c1nc(Nc2ccc(OCc3ccccc3)cc2)sc2ncc(F)cc12
- IC50 [2]: 3650 nM

SMILES: CN1CCN(C)C(=Nc2cc(Cl)c(C#N)cc2C(=O)Nc2ccccc2)C1
- inhibition ([1]; at 50 µM (top of the series)): 2.9% (inactive)

SMILES: COc1ccc(Nc2nc(=O)c3cccnc3s2)cc1
- inhibition ([1]; at 50 µM (top of the series)): -5.2% (inactive)

SMILES: O=c1nc(NC2CCNCC2)sc2ncccc12
- inhibition ([1]; at 25 µM (top of the series)): -0.4% (inactive)

SMILES: O=c1nc(Nc2ccc(CCc3ccccc3)cc2)sc2ncccc12
- inhibition ([1]; at 50 µM (top of the series)): 44% (inactive)

SMILES: CCN1CCN(c2nc3ccc([N+](=O)[O-])cc3c(=O)n2-c2ccccc2)CC1
- inhibition ([1]; at 25 µM (top of the series)): -1.4% (inactive)

SMILES: CNCCN(C)Cc1nc2ccc(C#N)cc2c(=O)n1-c1ccccc1F
- inhibition ([1]; at 50 µM (top of the series)): 6.3% (inactive)

SMILES: CCN1CCN(Cc2nc3ccc(S(=O)(=O)O)cc3c(=O)n2-c2ccccc2)CC1
- inhibition ([1]; at 25 µM (top of the series)): -0.2% (inactive)

SMILES: CNCCCN(C)Cc1nc2ccc([N+](=O)[O-])cc2c(=O)n1-c1ccccc1
- inhibition ([1]; at 50 µM (top of the series)): 0.8% (inactive)

SMILES: CCN1CCN(Cc2nc3ccc([N+](=O)[O-])cc3c(=O)n2-c2ccccc2)CC1
- inhibition ([1]; at 25 µM (top of the series)): 1.8% (inactive)

SMILES: CCN1CCN(Cc2nc3ccc([N+](=O)[O-])cc3c(=O)n2Cc2ccccc2)CC1
- inhibition ([1]; at 50 µM (top of the series)): 5.3% (inactive)

SMILES: O=c1nc(N2CCN(Cc3ccccc3)CC2)sc2ncccc12
- inhibition ([1]; at 25 µM (top of the series)): 1.8% (inactive)

SMILES: O=c1nc(Nc2ccc(OCc3ccccc3)cc2)sc2ncc([N+](=O)[O-])cc12
- inhibition ([1]; at 25 µM (top of the series)): -1% (inactive)

SMILES: O=c1nc(Nc2ccc(OCc3ccccc3)cc2)sc2ncccc12
- IC50 [2]: 1060 nM

SMILES: O=c1nc(Nc2ccc(F)cc2)sc2ncccc12
- inhibition ([1]; at 25 µM (top of the series)): 0.9% (inactive)

SMILES: O=c1nc(Nc2ccccc2OCc2ccccc2)sc2ncccc12
- inhibition ([1]; at 25 µM (top of the series)): -1% (inactive)
